Reference: patent publication US5589568A (priority 1994, dated 1996)
Where two headings read alike, the source gives them in different places. Where a SMILES comes first, the peptide text is derived from it. Where no end group is shown, it is not given here. The star is where a group is joined. Dodecyl = CCCCCCCCCCCC*

What was measured:
[1] = molecular target: T1, Go (Bos taurus, UniProt P08239); assay: steady state GTPase activity of Go in phospholipid vesicles; type: biochemical, bovine
T1 construct: proteins were extracted from bovine cerebral cortical membranes; from tissue; host or cells: bovine brain (cerebral cortical membranes)
Text: G proteins were reconstituted into phospholipid vesicles composed of dioleoyl-PC/bovine brain PS/1-palmitoyl,2-oleoyl-PE (3:4:3) as reported previously by Higashijima et al., 1988, incorporated herein by reference.

[2] = molecular target: Gs (Homo sapiens, UniProt P63092); assay: steady state GTPase activity of Gs; type: biochemical; settings: read-out: Gs af. (apparent affinity, estimated by EC50 of GTPase activity)
Experimental: Methods for the assay of steady state GTP hydrolysis and GTPγS binding have been described previously by Higashijima, 1987, and Ferguson, 1986, and incorporated herein by reference. Unless noted otherwise, assays of steady state GTP hydrolysis and of the binding and dissociation of guanine nucleotides were carried out in the buffer described previously, but without detergent and with 1.1 mM MgSO4 and the nucleotide specified in the text. When necessary, the concentration of free Mg^2+ was adjusted using EDTA buffers as described previously by Higashijima, 1987, and incorporated herein by reference.
The data set forth in the following tables represent data generated by the inventors employing the steady state GTP hydrolysis, expressed as molar turnover numbers, are described herein under the "Assay" section of the Experimental Procedures in Example 1. The data has been classified according to the criteria outlined below and the effects of each peptide and modified variant on Go, Gi, and Gs have been tabulated. Table III below sets forth data generated for various mastoparan analogues designed by the inventors, in comparison with the various naturally-occurring mastoparans (e.g., MP, MP-A and MP-T). Table IV sets forth similar data generated for various receptor-based peptides designed by the inventors based on a consideration of various G-protein linked receptors.
Apparent affinity (af.) and apparent efficacy (ef.) were estimated by EC50 and maximum turnover number of GTPase activity.

[3] = Table VI, receptor-based peptides

Chain of Gs (P63092 whole entry): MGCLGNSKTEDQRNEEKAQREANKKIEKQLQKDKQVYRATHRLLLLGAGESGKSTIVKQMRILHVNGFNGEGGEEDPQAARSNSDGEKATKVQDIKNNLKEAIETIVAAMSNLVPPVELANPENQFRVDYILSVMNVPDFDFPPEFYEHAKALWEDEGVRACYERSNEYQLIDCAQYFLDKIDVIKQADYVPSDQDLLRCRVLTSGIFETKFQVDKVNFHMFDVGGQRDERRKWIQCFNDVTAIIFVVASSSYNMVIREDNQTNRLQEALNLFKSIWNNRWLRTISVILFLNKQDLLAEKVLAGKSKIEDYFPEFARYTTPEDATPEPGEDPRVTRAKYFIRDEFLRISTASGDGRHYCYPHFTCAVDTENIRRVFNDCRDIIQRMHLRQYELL
T1 sequence (P08239 2-354 limits assumed): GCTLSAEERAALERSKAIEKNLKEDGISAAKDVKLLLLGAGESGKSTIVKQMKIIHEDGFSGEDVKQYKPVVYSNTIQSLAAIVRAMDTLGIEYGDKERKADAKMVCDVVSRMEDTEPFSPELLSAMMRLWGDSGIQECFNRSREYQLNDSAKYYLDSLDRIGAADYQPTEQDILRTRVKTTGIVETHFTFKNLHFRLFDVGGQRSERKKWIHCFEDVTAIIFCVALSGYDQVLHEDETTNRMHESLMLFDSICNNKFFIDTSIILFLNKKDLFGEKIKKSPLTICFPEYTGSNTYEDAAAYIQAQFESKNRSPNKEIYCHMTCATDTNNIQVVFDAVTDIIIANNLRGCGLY
T1 sequence (P62871 2-340 partner limits assumed): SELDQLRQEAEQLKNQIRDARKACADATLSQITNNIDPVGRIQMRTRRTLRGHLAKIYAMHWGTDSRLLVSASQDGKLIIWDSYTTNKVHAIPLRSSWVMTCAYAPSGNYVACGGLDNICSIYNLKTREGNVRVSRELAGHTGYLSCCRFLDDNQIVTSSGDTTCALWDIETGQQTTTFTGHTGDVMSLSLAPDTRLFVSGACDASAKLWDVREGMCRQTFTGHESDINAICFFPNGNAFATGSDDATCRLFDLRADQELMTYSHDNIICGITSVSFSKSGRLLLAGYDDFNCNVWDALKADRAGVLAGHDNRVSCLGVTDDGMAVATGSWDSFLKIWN
T1 sequence (P63212 2-68 partner limits assumed): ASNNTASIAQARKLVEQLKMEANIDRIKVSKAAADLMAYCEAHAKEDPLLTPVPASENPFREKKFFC

Row | Compound | EC50 [1] [µM] | EC50 ([2]; Table IV) [µM] | EC50 [2, 3] [µM]
1 | INLRALAALAKALL-NH2 [ER6] | < 3 | 3 to 10 | –
2 | INLKAFAALAKKLL-NH2 [MAS23] | 10 to 30 | 3 to 10 | –
3 | INLKALAALAKRLL-NH2 [MAS08] | 3 to 10 | 3 to 10 | –
4 | CISRASKSRIKKDKKEPVAIL-NH2 [ER44] | < 3 | – | 30 to 100
5 | CVYREAKEQIRKIDRVL-NH2 [ER18] | 30 to 100 | – | > 100
6 | INLKAIAAFAKKLL-NH2 [MP-T, reference compound] | 3 to 10 | 10 to 30 | –
7 | INYKALAACAKKIL-NH2 [ER14] | 3 to 10 | 3 to 10 | –
8 | CVYIVAKRTTKNLEIL-NH2 [ER35] | 10 to 30 | – | > 100
9 | INLKALAAAAKKLL-NH2 [MAS12] | 10 to 30 | 3 to 10 | –
10 | INLKALAKLAKKLL-NH2 [MAS14] | 10 to 30 | 3 to 10 | –
11 | CVYVVAKRESRGLKIL-NH2 [ER47] | 30 to 100 | – | > 100
12 | CNYKALAALAKALL-NH2 [ER16] | 3 to 10 | 10 to 30 | –
13 | CCCCCCCCCCCCSC[C@H](NC(=O)[C@@H](NC(=O)[C@@H](NC(=O)CNC(=O)[C@H](CC(C)C)NC(=O)[C@@H](NC(=O)[C@H](CCCCN)NC(=O)[C@H](CC(C)C)NC(=O)[C@H](C)NC(=O)[C@H](CCCCN)NC(=O)[C@H](Cc1c[nH]cn1)NC(=O)[C@H](CCC(=O)O)NC(=O)[C@@H](N)CCCNC(=N)N)[C@@H](C)O)[C@@H](C)CC)[C@@H](C)CC)C(N)=O [C12-ER40] (H-REHKALKTLGIIC(Dodecyl)-NH2) | 3 to 10 | – | 3 to 10
14 | INLQALAALAKALL-NH2 [ER8] | 3 to 10 | 3 to 10 | –
15 | REHKALKTLGIIC-NH2 [ER40] | > 100 | – | 30 to 100
16 | CVYREAKEQIRKIDR-NH2 [ER43] | > 100 | – | > 100
17 | INLKALKALAKKLL-NH2 [MAS15] | 10 to 30 | 3 to 10 | –
18 | INLQALAALAQALL-NH2 [ER9] | 30 to 100 | 10 to 30 | –
19 | CC[C@H](C)[C@H](N)C(=O)N[C@@H](CC(N)=O)C(=O)N[C@@H](CC(C)C)C(=O)N[C@@H](CCCCN)C(=O)N[C@@H](C)C(=O)N[C@@H](CC(C)C)C(=O)N[C@@H](C)C(=O)N[C@@H](C)C(=O)N[C@@H](CC(C)C)C(=O)N[C@@H](C)C(=O)N[C@@H](CCCCN)C(=O)N[C@@H](CCCCN)C(=O)N[C@@H](CCCCN)C(=O)N[C@@H](CC(C)C)C(N)=O [MAS06] | 30 to 100 | 30 to 100 | –
20 | CC[C@H](C)[C@H](N)C(=O)N[C@@H](CC(N)=O)C(=O)N[C@@H](Cc1ccc(O)cc1)C(=O)N[C@@H](CCCCN)C(=O)N[C@@H](C)C(=O)N[C@@H](CC(C)C)C(=O)N[C@@H](C)C(=O)N[C@@H](C)C(=O)N[C@@H](CC(C)C)C(=O)N[C@@H](C)C(=O)N[C@@H](CCCCN)C(=O)N[C@@H](CCCCN)C(=O)N[C@H](C(=O)N[C@@H](CC(C)C)C(N)=O)[C@@H](C)CC [ER13] | 3 to 10 | 3 to 10 | –
21 | IKWKAILDAVKKVL-NH2 [MP-A, reference compound] | 3 to 10 | 3 to 10 | –

Row | Compound | EC50 [1] [µM] | EC50 ([2]; Table IV) [µM] | EC50 [2, 3] [µM]
22 | INLAALAALAKKLL-NH2 [Mas19] | 3 to 10 | 3 to 10 | –
23 | CISRASKSRIKKDKKIL-NH2 [ER45] | < 3 | – | 3 to 10
24 | ILLKALAALAKALL-NH2 [ER21] | 3 to 10 | 3 to 10 | –
25 | INLAALAALAKALL-NH2 [ER4] | 3 to 10 | 3 to 10 | –
26 | INLQALKALAKALL-NH2 [ER11] | 3 to 10 | 3 to 10 | –
27 | IQLKALAALAKALL-NH2 [ER12] | 3 to 10 | 3 to 10 | –
28 | INLKALAALARALL-NH2 [ER2] | < 3 | 3 to 10 | –
29 | CVYREAKEQIRKIL-NH2 [ER19] | > 100 | – | > 100
30 | INLRALAALARALL-NH2 [ER7] | < 3 | 3 to 10 | –
31 | CC[C@H](C)[C@H](N)C(=O)N[C@@H](CC(N)=O)C(=O)N[C@@H](CC(C)C)C(=O)N[C@@H](CCCCN)C(=O)N[C@@H](C)C(=O)N[C@@H](CC(C)C)C(=O)N[C@@H](C)C(=O)N[C@@H](C)C(=O)N[C@@H](CC(C)C)C(=O)N[C@@H](C)C(=O)N[C@@H](CCCCN)C(=O)N[C@@H](CCCCN)C(=O)N[C@@H](CC(C)C)C(=O)N[C@@H](CC(C)C)C(N)=O [MAS03] | 3 to 10 | 10 to 30 | –
32 | CVFQVAKRQLQKIDKVL-NH2 [ER36] | 10 to 30 | – | 30 to 100
33 | INLKALKALAKALL-NH2 [ER10] | < 3 | 3 to 10 | –
34 | INLRALRALARALL-NH2 [ER24] | < 3 | 3 to 10 | –
35 | CPLSYRAKRTPRRAALM-NH2 [ER38] | 3 to 10 | – | 30 to 100
36 | INLKALAALAAKLL-NH2 [Mas9] | 3 to 10 | 30 to 100 | –
37 | INLKALAAKAKKLL-NH2 [MAS13] | 30 to 100 | 3 to 10 | –
38 | INWRAWRAWARAWL-NH2 [ER27] | < 3 | 3 to 10 | –
39 | INLKALAALARKLL-NH2 [MAS10] | 3 to 10 | 3 to 10 | –
40 | CC[C@H](C)[C@H](N)C(=O)N[C@@H](CC(N)=O)C(=O)N[C@@H](CC(C)C)C(=O)N[C@@H](CCCCN)C(=O)N[C@@H](C)C(=O)N[C@@H](CC(C)C)C(=O)N[C@@H](C)C(=O)N[C@@H](C)C(=O)N[C@@H](CC(C)C)C(=O)N[C@@H](C)C(=O)N[C@@H](CCCCN)C(=O)N[C@@H](CCCCN)C(=O)N[C@@H](C)C(=O)N[C@@H](CC(C)C)C(N)=O [MAS05, INLKALAALAKKAL] | 10 to 30 | 10 to 30 | –
41 | INLRALAALAKKLL-NH2 [MAS20] | 3 to 10 | 3 to 10 | –
42 | CIYRETENRARELAALQGSET-NH2 [ER32] | > 100 | – | > 100

Row | Compound | EC50 [1] [µM] | EC50 ([2]; Table IV) [µM] | EC50 [2, 3] [µM]
43 | IVYREAKEQIRKIL-NH2 [ER23] | 30 to 100 | – | 30 to 100
44 | INLKALAALAQALL-NH2 [ER3] | 10 to 30 | 3 to 10 | –
45 | CVYIVAKRTTKNLEAGVMKEIL-NH2 [ER34] | 30 to 100 | – | 30 to 100
46 | INLKKLAALAKKLL-NH2 [MAS18] | 10 to 30 | 3 to 10 | –
47 | INLKALAALKKKLL-NH2 [MAS11] | 10 to 30 | 3 to 10 | –
48 | INLKALAALAKALL-NH2 [ER1] | 3 to 10 | 3 to 10 | –
49 | INLKALAALAKKLA-NH2 [MAS04] | 3 to 10 | 3 to 10 | –
50 | CVYVVAKRESRGLKSGLKTDIL-NH2 [ER46] | 30 to 100 | – | > 100
51 | CIYRETENRARELAALQGSETIL-NH2 [ER33] | > 100 | – | > 100
52 | INYKALAALAKALC-NH2 [ER17] | 3 to 10 | 10 to 30 | –
53 | INLKALAALAAALL-NH2 [ER5] | 3 to 10 | 3 to 10 | –
54 | IVYREAKEQIRKIDRVL-NH2 [ER22] | 30 to 100 | – | 30 to 100
55 | INFKALAALAKKLL-NH2 [MAS22] | 10 to 30 | 3 to 10 | –
56 | INLKAKAALAKKLL-NH2 [Mas17] | 30 to 100 | 3 to 10 | –
57 | INLKALAALAKNLL-NH2 [ER20] | 3 to 10 | 10 to 30 | –
58 | CLLKALAALAKALL-NH2 [ER30] | 3 to 10 | 3 to 10 | –
59 | INLRALAALRRRLL-NH2 [ER28] | < 3 | 3 to 10 | –
60 | INYKALCALAKKIL-NH2 [ER15] | 30 to 100 | 10 to 30 | –
61 | INAKALAALAKKLL-NH2 [MAS21] | 10 to 30 | 10 to 30 | –
62 | INLKAAAALAKKLL-NH2 [MAS16] | 10 to 30 | 3 to 10 | –
